Results from US20090300848A1, “EPOXIDE-BASED TANNAGE SYSTEM” (BLC LEATHER TECHNOLOGY CENTRE LTD, priority 2006, published 2009).
Converted amounts (≈) assume the structure as drawn.

Assay: solubility in aqueous phase
Assay type: physicochemical
Details: water, 25° C.
From the text: By having an aromatic-like, heterocyclic triazine nucleus, it is believed to impart a network structure into the protein during tanning, giving better thermal stability.

solubility: 10000 µg/mL (≈ 33.6 mM)
Compound: O=c1n(CC2CO2)c(=O)n(CC2CO2)c(=O)n1CC1CO1 (stereo not shown) [TGIC, trigycidyl isocyanurate]
